Test results reported in US9856216B2, “Compounds as TNIK, IKKε and TBK1 inhibitors and pharmaceutical composition comprising same” (GREEN CROSS CORPORATION, priority 2015, dated 2018).

These compounds were tested against T1, TNIK (Homo sapiens, UniProt Q9UKE5) (assay: ADP-Glo Kinase Assay, inhibition activity on TNIK). Conditions: not given.
T1 construct: purchased Promega V4158
Assay type: biochemical
Description: The inhibition activities on TNIK, IKKε and TBK1 were measured by a luminometer, TNIK/IKKε/TBK1 Kinase Enzyme System (Promega, Ca# V4158; Invitrogen, PR8031B, Promega, Ca# V3991) and ADP-Glo Kinase Assay using ADP-Glo™ Kinase Analysis Kit (Promega, Ca# V9101) and a kinase reaction buffer [40 mM Tris(pH 7.5), 20 mM MgCl2, 0.1 mg/mL BSA] in accordance with the manufacturer's protocol.

T1 sequence (Q9UKE5 1-367 limits assumed): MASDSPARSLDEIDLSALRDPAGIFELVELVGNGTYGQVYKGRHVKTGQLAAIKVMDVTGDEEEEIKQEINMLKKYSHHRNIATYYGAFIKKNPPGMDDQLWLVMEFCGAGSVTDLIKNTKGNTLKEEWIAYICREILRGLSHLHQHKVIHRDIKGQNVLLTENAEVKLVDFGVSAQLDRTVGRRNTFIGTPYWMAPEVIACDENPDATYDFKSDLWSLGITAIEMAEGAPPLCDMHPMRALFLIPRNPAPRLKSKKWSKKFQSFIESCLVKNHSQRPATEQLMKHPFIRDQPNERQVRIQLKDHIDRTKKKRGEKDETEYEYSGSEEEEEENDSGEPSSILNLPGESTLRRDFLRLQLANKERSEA

| TNIK (μM) | Compound |
| --- | --- |
| Insoluble | O=C(Nc1ccc(Nc2ccccn2)c2c1C(=O)NC2)c1ccc(F)cc1 [Example 428, 4-Fluoro-N-(3-oxo-7-(pyridin-2-ylamino)isoindolin-4-yl) benzamide] |

Same assay, conditions: read-out: TNIK

| Compound | IC50 |
| --- | --- |
| O=C(Nc1ccc(Nc2cccc(Cl)c2)c2c1C(=O)NC2)c1ccc(F)cc1 [Example 418, N-(7-((3-chlorophenyl)amino)-3-oxoisoindolin-4-yl)-4-fluorobenzamide] | 1170 nM |
| O=C(Nc1ccc(Nc2ccccc2Cl)c2c1C(=O)NC2)c1ccc(F)cc1 [Example 419, N-(7-((2-chlorophenyl)amino)-3-oxoisoindolin-4-yl)-4-fluorobenzamide] | 2110 nM |
| COc1cccc(Nc2ccc(NC(=O)c3ccc(F)cc3)c3c2CNC3=O)c1OC [Example 422, N-(7-((2,3-dimethoxyphenyl)amino)-3-oxoisoindolin-4-yl)-4-fluorobenzamide] | 1180 nM |
| O=C(Nc1ccc(Nc2cc(C(F)(F)F)cc(C(F)(F)F)c2)c2c1C(=O)NC2)c1ccc(F)cc1 [Example 423, N-(7-((3,5-bis(trifluoromethyl)phenyl)amino)-3-oxoisoindolin-4-yl)-4-fluorobenzamide] | > 20000 nM |
| Cc1cccc(Nc2ccc(NC(=O)c3ccc(F)cc3)c3c2CNC3=O)c1C [Example 424, N-(7-((2,3-dimethylphenyl)amino)-3-oxoisoindolin-4-yl)-4-fluorobenzamide] | 1350 nM |
| COc1ccccc1Nc1ccc(NC(=O)c2ccc(F)cc2)c2c1CNC2=O [Example 425, 4-Fluoro-N-(7-((2-methoxyphenyl)amino)-3-oxoisoindolin-4-yl)benzamide] | 840 nM |
| Cc1ccccc1Nc1ccc(NC(=O)c2ccc(F)cc2)c2c1CNC2=O [Example 426, 4-Fluoro-N-(3-oxo-7-(o-tolylamino)isoindolin-4-yl)benzamide] | 1260 nM |
| O=C(Nc1ccc(Nc2cccnc2)c2c1C(=O)NC2)c1ccc(F)cc1 [Example 427, 4-Fluoro-N-(3-oxo-7-(pyridin-3-ylamino)isoindolin-4-yl) benzamide] | 620 nM |
| O=C(Nc1ccc(Nc2cnccn2)c2c1C(=O)NC2)c1ccc(F)cc1 [Example 429, 4-Fluoro-N-(3-oxo-7-(pyrazin-2-ylamino)isoindolin-4-yl) benzamide] | 530 nM |
| Cn1cc(Nc2ccc(NC(=O)c3ccc(F)cc3)c3c2CNC3=O)cn1 [Example 430] | 6470 nM |
| O=C(Nc1ccc(Nc2cc[nH]n2)c2c1C(=O)NC2)c1ccc(F)cc1 [Example 437] | 2900 nM |
| O=C(Nc1ccc(Nc2ccccc2)c2c1C(=O)NC2)c1ccc(NCCN2CCCC2)cc1 [Example 438, N-(3-oxo-7-(phenylamino)isoindolin-4-yl)-4-((2-(pyrrolidin-1-yl)ethyl)amino)benzamide] | 160 nM |
| O=C(Nc1ccc(Nc2ccccc2)c2c1C(=O)NC2)c1ccc(NCCN2CCCCC2)cc1 [Example 439, N-(3-oxo-7-(phenylamino)isoindolin-4-yl)-4-((2-(piperidin-1-yl)ethyl)amino)benzamide] | 150 nM |
| CN(C)CCNc1ccc(C(=O)Nc2ccc(Nc3ccccc3)c3c2C(=O)NC3)cc1 [Example 441] | 240 nM |
| O=C(Nc1ccc(Nc2ccccc2)c2c1C(=O)NC2)c1ccc(NCCN2CCOCC2)cc1 [Example 442, 4-((2-Morpholinoethyl)amino)-N-(3-oxo-7-(phenylamino)isoindolin-4-yl)benzamide] | 150 nM |
| CN1CCN(CCNc2ccc(C(=O)Nc3ccc(Nc4ccccc4)c4c3C(=O)NC4)cc2)CC1 [Example 443, 4-((2-(4-Methylpiperazin-1-yl)ethyl)amino)-N-(3-oxo-7-(phenylamino)isoindolin-4-yl)benzamide] | 120 nM |
| COc1cccc(Nc2ccc(NC(=O)c3ccc(NCCN4CCCC4)cc3)c3c2CNC3=O)c1 [Example 445, N-(7-((3-methoxyphenyl)amino)-3-oxoisoindolin-4-yl)-4-((2-(pyrrolidin-1-yl)ethyl)amino)benzamide] | 550 nM |

Second part, the compound after the results:

| IC50 | Compound |
| --- | --- |
| > 20000 nM | Cc1ccccc1Nc1ccc(NC(=O)c2ccccc2)c2c1CNC2=O [Example 411, N-(3-oxo-7-(o-tolylamino)isoindolin-4-yl)benzamide] |
| 4100 nM | Cc1ccc(Nc2ccc(NC(=O)c3ccccc3)c3c2CNC3=O)cc1 [Example 412, N-(3-oxo-7-(p-tolylamino)isoindolin-4-yl)benzamide] |
| 500 nM | O=C(Nc1ccc(Nc2ccccc2F)c2c1C(=O)NC2)c1ccccc1 [Example 413, N-(7-((2-fluorophenyl)amino)-3-oxoisoindolin-4-yl)benzamide] |
| 550 nM | O=C(Nc1ccc(Nc2ccc(F)cc2)c2c1C(=O)NC2)c1ccccc1 [Example 414, N-(7-((4-fluorophenyl)amino)-3-oxoisoindolin-4-yl)benzamide] |
| 1700 nM | O=C(Nc1ccc(Nc2cccc(F)c2)c2c1C(=O)NC2)c1ccccc1 [Example 415, N-(7-((3-fluorophenyl)amino)-3-oxoisoindolin-4-yl)benzamide] |
| 3700 nM | COc1ccc(Nc2ccc(NC(=O)c3ccccc3)c3c2CNC3=O)cc1 [Example 416, N-(7-((4-methoxyphenyl)amino)-3-oxoisoindolin-4-yl) benzamide] |
| 500 nM | Cc1ccc(C(=O)Nc2ccc(Nc3ccccc3)c3c2C(=O)NC3)cc1 [Example 417, 4-Methyl-N-(3-oxo-7-(phenylamino)isoindolin-4-yl)benzamide] |
| 790 nM | O=C(Nc1ccc(Nc2ccccc2)c2c1C(=O)NC2)c1ccccc1F [Example 420, 2-Fluoro-N-(3-oxo-7-(phenylamino)isoindolin-4-yl)benzamide] |
| 820 nM | O=C(Nc1ccc(Nc2ccccc2)c2c1C(=O)NC2)c1cccc(F)c1 [Example 421, 3-Fluoro-N-(3-oxo-7-(phenylamino)isoindolin-4-yl)benzamide] |
| 940 nM | COc1cccc(Nc2ccc(NC(=O)c3ccccc3)c3c2CNC3=O)c1 [Example 431, N-(7-((3-methoxyphenyl)amino)-3-oxoisoindolin-4-yl) benzamide] |
| 12200 nM | COc1ccccc1C(=O)Nc1ccc(Nc2ccccc2)c2c1C(=O)NC2 [Example 432, 2-Methoxy-N-(3-oxo-7-(phenylamino)isoindolin-4-yl) benzamide] |
| 400 nM | COc1ccc(C(=O)Nc2ccc(Nc3ccccc3)c3c2C(=O)NC3)cc1 [Example 433, 4-Methoxy-N-(3-oxo-7-(phenylamino)isoindolin-4-yl) benzamide] |
| 670 nM | COc1cccc(C(=O)Nc2ccc(Nc3ccccc3)c3c2C(=O)NC3)c1 [Example 434, 3-Methoxy-N-(3-oxo-7-(phenylamino)isoindolin-4-yl) benzamide] |
| 210 nM | CC(=O)Nc1ccc(C(=O)Nc2ccc(Nc3ccccc3)c3c2C(=O)NC3)cc1 [Example 435, 4-Acetamido-N-(3-oxo-7-(phenylamino)isoindolin-4-yl) benzamide] |
| 590 nM | Cc1cccc(Nc2ccc(NC(=O)c3ccccc3)c3c2CNC3=O)c1 [Example 436, N-(3-oxo-7-(m-tolylamino)isoindolin-4-yl)benzamide] |
| 110 nM | COCCNc1ccc(C(=O)Nc2ccc(Nc3ccccc3)c3c2C(=O)NC3)cc1 [Example 444, 4-((2-Methoxyethyl)amino)-N-(3-oxo-7-(phenylamino)isoindolin-4-yl)benzamide] |
